Measured values: patent publication US10202375B2, “N-pyridinyl acetamide derivatives as Wnt signalling pathway inhibitors” (Redx Pharma PLC, priority 2014, dated 2019)

Test system: Wnt pathway (L-Wnt cells producing murine Wnt-3a; Leading Light Wnt Reporter Cells)
Assay: Dual-Cell β-Catenin Reporter Assay
Format: cell-based, Mouse
Settings: luciferase signal reduced to 50% of DMSO control
Description: Dual-Cell β-Catenin Reporter Assay
Mouse L cells transfected to constitutively produce biologically active murine Wnt-3a, referred to as L-Wnt cells, were purchased from the American Type Culture Collection, ATCC, Manassas, Va. (ATCC). These cells were cultured in DMEM supplemented with 10% FCS (Gibco/Invitrogen, Carlsbad, Calif.), 1% geneticin and 1% sodium pyruvate (Sigma) at 37° C. with 5% CO2. The cells were seeded into 96 well plates and treated with serial dilutions of compound diluted to 0.1% DMSO concentration. After 24 hours, cell supernatants were transferred to a 96 well plate previously seeded with Leading Light® Wnt Reporter Cells, stably transfected with a luciferase gene under control of Wnt pathway response elements. After a further 24 hours, cells are treated with One-glo luciferase assay system (Promega, Madison, Wis.) and the luminescent signal read by envision.

Row | Compound | IC50 (category symbols) [nM] | IC50 (Mus musculus, category symbols) [nM] | also measured
1 | 2-[4-(2-methyl-4-pyridyl)imidazo[4,5-c]pyridin-1-yl]-N-(5-pyrazin-2-yl-2-pyridyl)acetamide [compound 20] | 1 to 5 | – | –
2 | 2-[4-(2-methyl-4-pyridyl)pyrazolo[3,4-b]pyridin-1-yl]-N-(6-pyrazin-2-yl-3-pyridyl)acetamide [compound 15] | 1 to 5 | – | –
3 | 2-[5-methyl-4-(2-methyl-4-pyridyl)pyrrolo[2,3-b]pyridin-1-yl]-N-(5-pyrazin-2-yl-2-pyridyl)acetamide [ID No. 1] | < 1 | – | IC50 (specific values): 0.32 nM
4 | 2-[6-methyl-4-(2-methyl-4-pyridyl)pyrrolo[2,3-d]pyrimidin-7-yl]-N-(5-pyrazin-2-yl-2-pyridyl)acetamide [ID No. 13] | < 1 | – | –
5 | Cc1cc(-c2c(F)cnc3c2ccn3CC(=O)Nc2ccc(-c3cnccn3)cn2)ccn1 [ID No. 2, 2-[5-fluoro-4-(2-methyl-4-pyridyl)pyrrolo[2,3-b]pyridin-1-yl]-N-(5-pyrazin-2-yl-2-pyridyl)acetamide] | – | < 1 | –
6 | Cc1cc(-c2ccnc3c2ccn3CC(=O)Nc2ccc(-c3cnccn3)nc2)ccn1 [ID No. 17, 2-[4-(2-methyl-4-pyridyl)pyrrolo[2,3-b]pyridin-1-yl]-N-(6-pyrazin-2-yl-3-pyridyl)acetamide] | – | < 1 | –
7 | Cc1cc(-c2ncnc3c2cnn3CC(=O)Nc2ccc(-c3cnccn3)cn2)ccn1 [ID No. 22, 2-[4-(2-methyl-4-pyridyl)pyrazolo[3,4-d]pyrimidin-1-yl]-N-(5-pyrazin-2-yl-2-pyridyl)acetamide] | – | 1 to 5 | –
8 | Cn1nccc1-c1nccc2c1ccn2CC(=O)Nc1ccc(-c2cnccn2)cn1 [compound 4, 2-[4-(2-methylpyrazol-3-yl)pyrrolo[3,2-c]pyridin-1-yl]-N-(5-pyrazin-2-yl-2-pyridyl)acetamide] | – | 1 to 5 | –
9 | Cn1nccc1-c1ccnc2c1cnn2CC(=O)Nc1ccc(-c2cnccn2)cn1 [compound 6, 2-[4-(2-methylpyrazol-3-yl)pyrazolo[3,4-b]pyridin-1-yl]-N-(5-pyrazin-2-yl-2-pyridyl)acetamide] | > 5 | – | –
10 | Cc1cc(-c2nc(N)nc3c2ccn3CC(=O)Nc2ccc(-c3cnccn3)cn2)ccn1 [compound 8, 2-[2-amino-4-(2-methyl-4-pyridyl)pyrrolo[2,3-d]pyrimidin-7-yl]-N-(5-pyrazin-2-yl-2-pyridyl)acetamide] | – | < 1 | –
11 | Cc1cc(-c2nc(Cl)nc3c2ccn3CC(=O)Nc2ccc(-c3cnccn3)cn2)ccn1 [compound 12, 2-[2-chloro-4-(2-methyl-4-pyridyl)pyrrolo[2,3-d]pyrimidin-7-yl]-N-(5-pyrazin-2-yl-2-pyridyl)acetamide] | – | < 1 | –
12 | Cc1cc(-c2ncnc3c2cc(C)n3CC(=O)Nc2ccc(-c3cnccn3)cn2)ccn1 [compound 13, 2-[6-methyl-4-(2-methyl-4-pyridyl)pyrrolo[2,3-d]pyrimidin-7-yl]-N-(5-pyrazin-2-yl-2-pyridyl)acetamide] | – | > 5 | –
13 | Cc1cc(-c2ncnc3c2cnn3CC(=O)Nc2ccc(-c3cnccn3)nc2)ccn1 [compound 14, 2-[4-(2-methyl-4-pyridyl)pyrazolo[3,4-d]pyrimidin-1-yl]-N-(6-pyrazin-2-yl-3-pyridyl)acetamide] | – | 1 to 5 | –
14 | Cc1cc(-c2ncnc3c2ccn3CC(=O)Nc2ccc(-c3cnccn3)nc2)ccn1 [compound 16, 2-[4-(2-methyl-4-pyridyl)pyrrolo[2,3-d]pyrimidin-7-yl]-N-(6-pyrazin-2-yl-3-pyridyl)acetamide] | – | > 5 | –
15 | Cc1cc(-c2ccnc3c2ccn3CC(=O)Nc2ccc(-c3cnccn3)nc2)ccn1 [compound 17, 2-[4-(2-methyl-4-pyridyl)pyrrolo[2,3-b]pyridin-1-yl]-N-(6-pyrazin-2-yl-3-pyridyl)acetamide] | 1 to 5 | – | –
16 | Cn1nccc1-c1ncnc2c1ccn2CC(=O)Nc1ccc(-c2cnccn2)cn1 [compound 18, 2-[4-(2-methylpyrazol-3-yl)pyrrolo[2,3-d]pyrimidin-7-yl]-N-(5-pyrazin-2-yl-2-pyridyl)acetamide] | – | 1 to 5 | –
17 | Cc1cc(-c2ncnc3c2ncn3CC(=O)Nc2ccc(-c3cnccn3)cn2)ccn1 [compound 19, 2-[6-(2-methyl-4-pyridyl)purin-9-yl]-N-(5-pyrazin-2-yl-2-pyridyl)acetamide] | > 5 | – | –
18 | O=C(Cn1ccc2c(-c3ccnc(C(F)(F)F)c3)ncnc21)Nc1ccc(-c2cnccn2)cn1 [compound 21, N-(5-pyrazin-2-yl-2-pyridyl)-2-[4-[2-(trifluoromethyl)-4-pyridyl]pyrrolo[2,3-d]pyrimidin-7-yl]acetamide] | – | < 1 | –
19 | Cc1cc(-c2ncnc3c2cnn3CC(=O)Nc2ccc(-c3cnccn3)cn2)ccn1 [compound 22, 2-[4-(2-methyl-4-pyridyl)pyrazolo[3,4-d]pyrimidin-1-yl]-N-(5-pyrazin-2-yl-2-pyridyl)acetamide] | < 1 | – | –
20 | Cc1cc(-c2nccc3c2ccn3CC(=O)Nc2ccc(-c3cnccn3)cn2)ccn1 [compound 23, 2-[4-(2-methyl-4-pyridyl)pyrrolo[3,2-c]pyridin-1-yl]-N-(5-pyrazin-2-yl-2-pyridyl)acetamide] | – | < 1 | IC50 (Mus musculus, specific values): 0.43 nM
21 | Cc1cc(-c2cncc3c2ccn3CC(=O)Nc2ccc(-c3cnccn3)cn2)ccn1 [compound 24, 2-[4-(2-methyl-4-pyridyl)pyrrolo[2,3-c]pyridin-1-yl]-N-(5-pyrazin-2-yl-2-pyridyl)acetamide] | – | < 1 | –
22 | Cc1cc(-c2ccnc3c2cnn3CC(=O)Nc2ccc(-c3cnccn3)cn2)ccn1 [compound 25, 2-[4-(2-methyl-4-pyridyl)pyrazolo[3,4-b]pyridin-1-yl]-N-(5-pyrazin-2-yl-2-pyridyl)acetamide] | – | < 1 | –
23 | CN1CCN(c2ccnc3c2ccn3CC(=O)Nc2ccc(-c3cnccn3)cn2)CC1 [compound 28, 2-[4-(4-methylpiperazin-1-yl)pyrrolo[2,3-b]pyridin-1-yl]-N-(5-pyrazin-2-yl-2-pyridyl)acetamide] | > 5 | – | –
24 | CC1CN(c2ccnc3c2ccn3CC(=O)Nc2ccc(-c3cnccn3)cn2)CC(C)N1 (stereo not shown) [compound 29, 2-[4-(3,5-dimethylpiperazin-1-yl)pyrrolo[2,3-b]pyridin-1-yl]-N-(5-pyrazin-2-yl-2-pyridyl)acetamide] | > 5 | – | –
25 | Cn1nccc1-c1ccnc2c1ccn2CC(=O)Nc1ccc(-c2cnccn2)cn1 [compound 31, 2-[4-(2-methylpyrazol-3-yl)pyrrolo[2,3-b]pyridin-1-yl]-N-(5-pyrazin-2-yl-2-pyridyl)acetamide] | – | < 1 | IC50 (Mus musculus, specific values): 0.89 nM
